≈ marks a conversion by molar mass, not a printed value. Read-outs that look alike come from different tables or passages of the source. Where a SMILES comes first, the peptide text is derived from it.
Columns and labels:
E. coli [1] = experiment: microbe, parasite or virus in culture; assay type: cell-based; conditions: Escherichia coli, 18 h
Method: (§1) S. aureus and S. enteritidis isolates were obtained from laboratory clinical isolates, and avian pathogenic E. coli was kindly provided by Professor Qingke Kong (College of Veterinary Medicine, Southwest University). […] Bacteria were cultured at 37°C for 18 h in MHB or LB agar plates.
(§2) Briefly, bacteria were maintained in MHB medium at 37°C and grown to mid-logarithmic growth phase before being tested. […] After incubation, minimum inhibitory concentration (MIC) was determined by the observation of turbidity, and minimum bactericidal concentration (MBC) was determined by colony counting. […] After overnight culture at 37°C, survival bacteria were counted.

S. aureus [2] = experiment: microbe, parasite or virus in culture; assay type: cell-based; conditions: Staphylococcus aureus, 18 h
Method: as §1, §2

S. enteritidis [3] = experiment: microbe, parasite or virus in culture; assay type: cell-based; conditions: Salmonella enterica, MHB, 18 h, 37°C, triplicate; for MBC: colony counting; for MIC: turbidity
From the text: S. aureus and S. enteritidis isolates were obtained from laboratory clinical isolates, and avian pathogenic E. coli was kindly provided by Professor Qingke Kong (College of Veterinary Medicine, Southwest University). Mueller–Hinton broth (MHB; Beijing Land Bridge Technology Co., Ltd., China) was used as bacterial growth media for antimicrobial activity assays, and Luria–Bertani (LB; Qingdao Hope Bio-Technology Co., Ltd., China) agar plates were used for the colony-counting assay. Bacteria were cultured at 37°C for 18 h in MHB or LB agar plates.
Antimicrobial activity of AMPs and antibiotics was performed by the broth microdilution assay as reported previously (Wiegand et al., [2008]). Briefly, bacteria were maintained in MHB medium at 37°C and grown to mid-logarithmic growth phase before being tested. Then, 50 μl of peptides (0–80 μM) and antibiotics (0–40,960 μM) with triplicate were mixed with an equal volume of bacterial suspension (2 × 10^6 CFU/ml) in 96-well plates and incubated for 18 h at 37°C. After incubation, minimum inhibitory concentration (MIC) was determined by the observation of turbidity, and minimum bactericidal concentration (MBC) was determined by colony counting. […] After overnight culture at 37°C, survival bacteria were counted.

S. aureus [4] = experiment: Time-killing curve assay; assay type: cell-based, Staphylococcus aureus; conditions: at sub-MBC (lowest concentrations with synergy), followed to 180 min
Method: (§3) The bacterial suspension was prepared as described above. […] After overnight culture, colony counting was performed.

E. coli [5] = experiment: Motility assay on semisolid agar; assay type: cell-based, Escherichia coli; conditions: alone at 1/4 MIC, 18 h
E. coli [6] = assay type: cell-based, Escherichia coli
Method: Drug resistance induction of E. coli was performed as previously reported. […] Bacteria from the highest concentration of drug combination were regrown, and MIC of erythromycin was measured, and then bacteria were treated again with the drug combination. The change in MIC was described by normalizing the MIC of the n generation to the MIC of first generation.

PK-15 cells = experiment: Cytotoxicity, WST-1 assay; assay type: cell-based
Method: Cells were seeded at a density of 1 × 10^5 cells/well in 48-well plates and cultured overnight before being used for assays described below. For cytotoxicity assay, mice peritoneal macrophages and PK-15 cells were prepared in a 48-well plate as described above and incubated with or without tested compounds for 2 h at 37°C with CO2. After 2 h incubation, cells were washed with a cell culture medium twice and continued to culture for 22 or 46 h. After 24 and 48 h incubation, 150 μl of 10% WST-1 reagent was added according to the protocols of the manufacturer. After 20 min incubation, absorbance was measured at 450 nm with a microplate reader (Bio-Rad, Japan) and was corrected for absorbance at 630 nm. Untreated cells were set as a control. The percent of cell viability (%) was calculated using the following formula: Cell viability (%) =OD450nm of treated sample/OD450nm of control×100%

E. coli [7] = experiment: Time-killing curve assay; assay type: cell-based, Escherichia coli; conditions: at sub-MBC (lowest concentrations with synergy), followed to 180 min
Method: as §3

E. coli [8] = experiment: SEM analysis of bacterial morphology; assay type: cell-based, Escherichia coli; conditions: 1/16 MBC of each agent, 6 h, 37°C, 1 × 10^8 CFU/ml
Method: After incubation, bacterial suspension was centrifuged and washed with PBS three times. Then, bacterial pellets were fixed with 1.5 ml of 2.5% glutaraldehyde in PBS at 4°C overnight. Finally, samples were sent to the Lilai biomedicine experiment center (Sichuan, China) for SEM analysis.

red blood cells of mice = experiment: Hemolytic activity assay; assay type: cell-based
Method: Murine erythrocytes and peritoneal macrophages were obtained from wild-type (WT) C57BL/6 mice (Chongqing Academy of Chinese Material Medical, China). Briefly, erythrocytes were obtained by collecting blood from the tail vein. […] The hemolytic activities of AMPs and antibiotics were determined as previously described (Song et al., [2020]). In brief, whole mice blood was centrifuged at 1,500 rpm for 5 min at room temperature and then washed three times with phosphate-buffered saline (PBS) to obtain red blood cells (RBCs). Subsequently, 2% RBCs in PBS were prepared. Then, aliquots of 100 μl RBCs were mixed with 100 μl tested compounds in PBS in polypropylene 96-well microtiter plates and incubated for 1 h at 37°C. After incubation, the plate was centrifuged for 5 min at 1,500 rpm and 100 μl supernatant was transferred to a new 96-well plate to determine the absorbance at 570 nm. RBCs in PBS served as negative control while RBCs treated with 1% Triton X-100 in PBS served as a positive control. The percent of hemolysis (%) was calculated using the following formula Hemolysise (%)=(OD570nm of treated sample-OD570nm of negative control)/(OD570nm of positive control-OD570nm of negative control)×100%

S. enteritidis [9] = experiment: Time-killing curve assay; conditions: at sub-MBC (lowest concentrations with synergy), followed to 180 min
Method: as §3

SMILES | MBC (E. coli [1]) | MBC (S. aureus [2]) | MBC (S. enteritidis [3]) | MIC (S. enteritidis [3]) | MIC (E. coli [1]) | MIC (S. aureus [2]) | hemolysis (red blood cells of mice; red cells of mouse, 1 h) | other results
CN(C)[C@@H]1C(O)=C(C(N)=O)C(=O)[C@@]2(O)C(O)=C3C(=O)c4c(O)cccc4[C@@](C)(O)[C@H]3C[C@@H]12 [Tetracycline, tetracycline] | 10 µM (≈ 4.44 µg/mL) | 40 µM (≈ 17.8 µg/mL) | 640 µM (≈ 284 µg/mL) | 40 µM (≈ 17.8 µg/mL) | – | – | – | –
CC[C@H]1OC(=O)[C@H](C)[C@@H](O[C@H]2C[C@@](C)(OC)[C@@H](O)[C@H](C)O2)[C@H](C)[C@@H](O[C@@H]2O[C@H](C)C[C@H](N(C)C)[C@H]2O)[C@](C)(O)C[C@@H](C)C(=O)[C@H](C)[C@@H](O)[C@]1(C)O [Erythromycin, erythromycin] | > 5120 µM | > 5120 µM | > 5120 µM | 80 µM (≈ 58.7 µg/mL) | 40 µM (≈ 29.4 µg/mL) | 5120 µM (≈ 3760 µg/mL) | – | time to kill all bacteria (S. aureus [4]): > 180 min; effect on bacterial migration distance (E. coli [5]): did not affect bacterial migration distance; MIC of erythromycin increase (E. coli [6]): 16 fold; MIC increase (E. coli [6]; […], 14th generation, relative to first generation): 2 fold; cell viability (PK-15 cells): < 30%; time to kill all bacteria (E. coli [7]): > 180 min; E. coli cellular morphology by SEM (E. coli [8]): induced the formation of micelles; hemolysis (red blood cells of mice): > 95%; time to kill all bacteria (S. enteritidis [9]): > 180 min
CNC(C)C1CCC(N)C(OC2C(N)CC(N)C(OC3OCC(C)(O)C(NC)C3O)C2O)O1 (centres unmarked) [Gentamicin, gentamicin] | 2.5 µM (≈ 1.19 µg/mL) | 40 µM (≈ 19.1 µg/mL) | 5 µM (≈ 2.39 µg/mL) | 2.5 µM (≈ 1.19 µg/mL) | 1.25 µM (≈ 0.597 µg/mL) | 20 µM (≈ 9.55 µg/mL) | – | –
CC[C@H](C)[C@H](NC(=O)CNC(=O)[C@H](C)NC(=O)[C@H](C)NC(=O)[C@@H](NC(=O)[C@@H](NC(=O)[C@H](CC(N)=O)NC(=O)[C@@H](NC(=O)[C@H](C)NC(=O)[C@@H](NC(=O)[C@@H]1CCCN1C(=O)[C@@H](NC(=O)[C@H](CC(C)C)NC(=O)[C@@H]1CCCN1C(=O)[C@H](Cc1c[nH]c2ccccc12)NC(=O)[C@H](Cc1ccccc1)NC(=O)[C@H](CCCNC(=N)N)NC(=O)[C@H](CCCCN)NC(=O)[C@@H](NC(=O)[C@@H](N)CCCNC(=N)N)C(C)C)C(C)C)C(C)C)[C@@H](C)CC)[C@@H](C)O)C(C)C)C(=O)N[C@@H](CC(N)=O)C(=O)N[C@@H](CC(C)C)C(=O)N[C@@H](Cc1ccc(O)cc1)C(=O)N[C@@H](CCCCN)C(=O)N[C@@H](C)C(=O)N[C@H](C(=O)N[C@@H](CCCNC(=N)N)C(=O)N[C@@H](CCCNC(=N)N)C(=O)N[C@@H](CCCCN)C(=O)O)[C@@H](C)CC [CATH-3] (H-RVKRFWPLVPVAINTVAAGINLYKAIRRK-OH) | – | – | – | – | – | – | < 20% | toxicity to PK-15 cells (PK-15 cells): did not show toxicity
CC[C@H](C)[C@H](NC(=O)[C@H](CCCCN)NC(=O)[C@H](CCCCN)NC(=O)[C@H](CC(C)C)NC(=O)[C@H](CCCNC(=N)N)NC(=O)[C@H](CCCCN)NC(=O)[C@H](CCCNC(=N)N)NC(=O)[C@@H](NC(=O)[C@H](CCCCN)NC(=O)[C@H](CCCCN)NC(=O)[C@H](CCCNC(=N)N)NC(=O)[C@H](CC(C)C)NC(=O)[C@H](CCCNC(=N)N)NC(=O)[C@H](CCCNC(=N)N)NC(=O)[C@H](Cc1ccccc1)NC(=O)[C@H](CCCNC(=N)N)NC(=O)CN)[C@@H](C)O)C(=O)NCC(=O)N[C@@H](CCCCN)C(=O)N[C@H](C(=O)N[C@@H](CC(C)C)C(=O)N[C@@H](CCCCN)C(=O)N[C@@H](Cc1c[nH]c2ccccc12)C(=O)N[C@H](C(=O)N1CCC[C@H]1C(=O)N1CCC[C@H]1C(=O)N[C@H](C(=O)N[C@H](C(=O)NCC(=O)N[C@@H](CO)C(=O)N[C@H](C(=O)N1CCC[C@H]1C(=O)N[C@@H](CC(C)C)C(=O)NCC(=O)N[C@@H](CS)C(=O)NCC(=O)O)[C@@H](C)CC)C(C)C)[C@@H](C)CC)[C@@H](C)CC)C(C)C [PMAP-36] (H-GRFRRLRKKTRKRLKKIGKVLKWIPPIVGSIPLGCG-OH) | – | – | – | – | – | – | < 20% | cell viability (PK-15 cells; 2 h): < 30%
CC1(C)S[C@@H]2[C@H](NC(=O)[C@H](N)c3ccccc3)C(=O)N2[C@H]1C(=O)O [Ampicillin, ampicillin] | 160 µM (≈ 55.9 µg/mL) | 640 µM (≈ 224 µg/mL) | > 5120 µM | 5120 µM (≈ 1790 µg/mL) | 160 µM (≈ 55.9 µg/mL) | 80 µM (≈ 28 µg/mL) | – | –
